# US12508323B2, “Method of treatment of colorectal, breast and lung cancer with metal containing immune agonist complexes” (HANGZHOU XINGAO BIOTECHNOLOGY CO., LTD., priority 2020, dated 2025)
# Experiments:
# Assay type in all cases: in vivo
# [1] = system: mice with localized cerebral ischemia; assay: Local cerebral ischemia model (wire bolus method), Zea Longa 5-point behavioral score; settings: ICR mice, 10 mg/kg i.p., Zea Longa 5-point scale (0 normal to 4)
# Source text: Healthy male ICR mice, weighing 18-20 g, were purchased from Shanghai Slaughter Laboratory Animal Co (quality certificate number (SCXK(SH) 2007-0005)) and raised in a cleaning experimental animal room.
# Local cerebral ischemia model was made by wire bolus method to verify the therapeutic effects of immune agonist complexes on cerebral ischemic brain diseases in experimental animals.
# Experimental mice were anesthetized with 10% chloral hydrate intraperitoneally, and a median cervical incision was made to separate and ligate the proximal segment of the right common carotid artery, the carotid artery and branch vessels thereof. The right internal carotid artery was isolated, the pterygopalatine artery was isolated downward along the internal carotid artery, and the root was ligated for this branch. The proximal end of the internal carotid was provided with a prepared wire, and the distal end of the internal carotid was provided with an artery clip. […] Behavioral scoring was performed after surgery, and the scoring was single-blinded with reference to the Zea Longa 5-point scale, which was scored as follows: 0, normal mice with no signs of neurological injury; 1, unable to fully extend the contralateral front paw; 2, turning in a circle to the outside; 3, relatively measured tipping; and 4, unable to walk spontaneously, and loss of consciousness injury. […]
# [2] = system: APP/PS1 transgenic AD model mice; assay: Morris water maze test in AD mice; settings: 10 mg/kg i.p. once a day for 60 days, space exploration test
# Description: APP/PS1 transgenic AD model mice were purchased from Southern Model Biotechnology Co., Ltd., which were 4 months in age, and 24-26 g in weight. […]
# A circular pool was designed, which was 1 m in diameter, 50 cm in height, 30 cm deep, and white bottom. […] After the mice found the platform or could not find the platform within 90 seconds (the latency period was recorded as 90 seconds), they were guided to the platform by the experimenter and rested on the platform for 10 seconds before the next trial.
# 24 h after the end of the positioning navigation test, the platform was removed. Then the mice were put into the water from the third quadrant, and the swimming paths of the mice were recorded within 180 s. The residence time of the mice in the target quadrant (third quadrant) and the number of times they crossed the location of the original platform were recorded to observe the spatial orientation ability of the mice. […]
# [3] = system: OVA; assay: Immune adjuvant function with OVA immunization (ELISA); settings: values of log2; s.c. 10 μg OVA + 100 μg adjuvant on days 1, 7, 14; sampled day 21; C57BL/6 mice
# Description: Specific pathogen free (SPF)-grade C57BL/6 male mice, aged 7-8 weeks and weighing 20-22 g, were purchased from American Animals Inc. The aluminum adjuvant and OVA were purchased from Invitrogen company.
# The mice were divided into 7 groups (10 mice in each group), namely, group A: OVA+cGAMP; group B: OVA+MncGAMP; group C: OVA+complex VIII; group D: OVA+complex IV; group E: OVA+complex VII; group F: OVA+aluminum adjuvant; and group G: OVA.
# Each mouse was injected subcutaneously with 10 μg of OVA and 100 μg of aluminum adjuvant or a different species of cGAMP (or the immune agonist complex), and those not injected were negative control groups. Immunization was performed once on days 1, 7, and 14, respectively, and lung lavage fluid was obtained and blood samples taken on day 21. The potency of the immune agonist and the complex as adjuvants to induce nanobody production was determined by ELISA, and the results were shown in Table 7.
compound,measurement,setting,value
"Nc1nc(=O)c2ncn(C3OC4COP(=O)(O)OC5C(COP(=O)(O)OC3C4O)OC(n3cnc4c(N)ncnc43)C5O)c2[nH]1 (centres unmarked) [cGAMP, 2′3′-cGAMP]",Behavioral scores (24 hours after surgery),[1],2.26 ± 0.40
same,Behavioral scores (7 days after surgery),[1],1.65 ± 0.34
same,Percentage of time to cross the third quadrant platform in AD mice (%),[2],0.55 ± 0.10%
same,Alveolar lavage fluid (IgA),[3],2.3 ± 0.2
same,Serum (IgG),[3],17.5 ± 0.9
